From patent US8865623B2, “Herbicidally active cyclic diones and derivatives thereof, processes for their preparation, compositions, and method of controlling weeds” (Syngenta Limited, priority 2009, dated 2014)

Assays:
Format in all cases: in vivo
[1] = tested on: Alopecurus myosuroides (ALOMY); experiment: Post-emergence herbicidal activity, glasshouse pot test; details: Alopecurus myosuroides, 312 h, rate 250 g/ha, evaluated after 13 days, glasshouse, read-out: Post-emergence activity ALOMY (100=total damage to plant; 0=no damage to plant)
How it was run: (§1)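 Glasshouse pots, standard soil; spray at day 1 (pre) or day 8 (post) after sowing; a.i. in acetone/water 50:50 + 0.5% Tween 20, diluted aqueous. 24/16° C, 14 h light, 65% RH. Visual damage at 13 days: 0 = none, 100 = total.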

[2] = tested on: Lolium perenne (LOLPE); experiment: as above; details: Lolium perenne, 312 h, rate 250 g/ha, evaluated after 13 days, glasshouse, read-out: Post-emergence activity LOLPE (100=total damage to plant; 0=no damage to plant)
How it was run: as §1

[3] = tested on: Avena fatua (AVEFA); experiment: as above; details: Avena fatua, 312 h, rate 250 g/ha, evaluated after 13 days, glasshouse, read-out: Post-emergence activity AVEFA (100=total damage to plant; 0=no damage to plant)
How it was run: as §1

[4] = tested on: Echinochloa crus-galli (ECHCG); experiment: as above; details: Echinochloa crus-galli, 312 h, rate 250 g/ha, evaluated after 13 days, glasshouse, read-out: Post-emergence activity ECHCG (100=total damage to plant; 0=no damage to plant)
How it was run: as §1

[5] = tested on: Alopecurus myosuroides (ALOMY); experiment: Pre-emergence herbicidal activity, glasshouse pot test; details: Alopecurus myosuroides, 312 h; Rate 250 g/ha; pre-emergence spray; evaluated after 13 days; read-out: Pre-emergence activity ALOMY (100=total damage to plant; 0=no damage to plant)
How it was run: as §1

[6] = tested on: Lolium perenne (LOLPE); experiment: as above; details: Lolium perenne, 312 h; Rate 250 g/ha; pre-emergence spray; evaluated after 13 days; read-out: Pre-emergence activity LOLPE (100=total damage to plant; 0=no damage to plant)
How it was run: as §1

[7] = tested on: Avena fatua (AVEFA); experiment: as above; details: Avena fatua, 312 h; Rate 250 g/ha; pre-emergence spray; evaluated after 13 days; read-out: Pre-emergence activity AVEFA (100=total damage to plant; 0=no damage to plant)
How it was run: as §1

[8] = tested on: Echinochloa crus-galli (ECHCG); experiment: as above; details: Echinochloa crus-galli, 312 h; Rate 250 g/ha; pre-emergence spray; evaluated after 13 days; read-out: Pre-emergence activity ECHCG (100=total damage to plant; 0=no damage to plant)
How it was run: as §1

SMILES | pest or weed control at 250 g/ha [1] [%] | pest or weed control at 250 g/ha [2] [%] | pest or weed control at 250 g/ha [3] [%] | pest or weed control at 250 g/ha [4] [%] | pest or weed control at 250 g/ha [5] [%] | pest or weed control at 250 g/ha [6] [%] | pest or weed control at 250 g/ha [7] [%] | pest or weed control at 250 g/ha [8] [%]
CCc1ccc(Oc2ncc(Cl)cc2C(F)(F)F)cc1C1=C(O)C(C)(C)OC(C)(C)C1=O [Example A-143] | 100 | 100 | 100 | 100 | 60 | 70 | 40 | 100
CCc1ccc(Oc2cc(Cl)cc(Cl)n2)cc1C1=C(O)C(C)(C)OC(C)(C)C1=O [Example A-145] | 20 | 20 | 20 | 70 | 10 | 10 | 0 | 20
CCc1ccc(Oc2cc(C(F)(F)F)cc(Cl)n2)cc1C1=C(O)C(C)(C)OC(C)(C)C1=O [Example A-146] | 30 | 20 | 30 | 70 | 10 | 0 | 0 | 10
CCc1ccc(Oc2ccc(Cl)cn2)cc1C1=C(O)C(C)(C)OC(C)(C)C1=O [Example A-147] | 80 | 90 | 70 | 100 | 50 | 80 | 20 | 100
CCc1ccc(Oc2ncc(C(F)(F)F)cc2C(F)(F)F)cc1C1=C(O)C(C)(C)OC(C)(C)C1=O [Example A-148] | 90 | 90 | 100 | 100 | 50 | 100 | 90 | 90
CCc1ccc(Oc2ccc([N+](=O)[O-])cn2)cc1C1=C(O)C(C)(C)OC(C)(C)C1=O [Example A-149] | 10 | 30 | 30 | 50 | 10 | 20 | 10 | 60
CCc1ccc(Oc2ccc(C#N)cn2)cc1C1=C(O)C(C)(C)OC(C)(C)C1=O [Example A-150] | 60 | 40 | 70 | 100 | 10 | 70 | 10 | 80
CCc1ccc(Oc2nc(F)c(F)c(Cl)c2F)cc1C1=C(O)C(C)(C)OC(C)(C)C1=O [Example A-151] | 20 | 30 | 20 | 70 | 30 | 50 | 20 | 70
CCc1ccc(Oc2cc(C(F)(F)F)ccn2)cc1C1=C(O)C(C)(C)OC(C)(C)C1=O [Example A-153] | 70 | 30 | 80 | 90 | 50 | 60 | 20 | 100
